Assay results from patent publication US6812237B2, “N-substituted peptidyl nitriles as cysteine cathepsin inhibitors” (Novartis AG, priority 2000, dated 2004).

Columns and labels:
[1] = target: recombinant human cathepsin B (Homo sapiens, UniProt P07858); assay: in vitro cathepsin B assay; format: biochemical; conditions: Z-Arg-Arg-AMC substrate, pH 5.8 phosphate buffer, fluorescence at 20 minutes
Description: The cathepsin inhibitory effects of the compound of the invention can be determined in vitro by measuring the inhibition of e.g. recombinant human cathepsins B, L and S. The buffer used in the assays is a 0.1 M pH 5.8 phosphate buffer containing EDTA (1.33 mM), DTT (2.7 mM) and Brij (0.03%).
The in vitro assays are carried out as follows:
To a microtiter well is added 100 uL of a 20 uM solution of inhibitor in assay buffer followed by 50 uL of a 6.4 mM solution of Z—Arg—Arg—AMC substrate (Peptides International) in assay buffer. After mixing, 50 uL of a 0.544 nM solution of recombinant human cathepsin B in assay buffer is added to the well, yielding a final inhibitor concentration of 10 uM. Enzyme activity is determined by measuring fluorescence of the liberated aminomethylcoumarin at […] using 380 nm excitation, at 20 minutes. % Enzyme inhibition is determined by comparison of this activity to that of a solution containing no inhibitor. Compounds are subsequently subjected to a dose response curve analysis to determine IC50 values.

IC50 [1] [nM] | melting point [°C] | SMILES
~100 | 135 to 137 | Cc1cccc(C[C@H](Nc2ccccc2)C(=O)NC(C#N)COCc2cccc(C(=O)O)c2)c1 (stereo in doubt) [Example 6, N-[2-(3-Carboxy-benzyloxy)-1(S)-cyanoethyl]-3-methyl-Nα-phenyl-L-phenylalaninamide]
 | 86 to 88 | C=CCOC(=O)c1cccc(COCC(C#N)NC(=O)[C@H](Cc2cccc(C)c2)Nc2ccc(F)cc2)c1 (stereo in doubt) [Example 5, N-[2-[3-(allyloxycarbonyl)-benzyloxy]-1(S)-cyanoethyl]-3-methyl-Nα-(4-fluorophenyl)-L-phenylalaninamide]
 | 80 to 83 | N#C[C@@H](COCc1cccc(C(=O)O)c1)NC(=O)C1(Nc2ccccc2)CCCCC1 [Example 14 (a), N-[2-(3-carboxybenzyloxy)-1-(S)-cyanoethyl]-1-(phenylamino)-cyclohexanecarboxamide]
 | 169 to 170 | N#CCNC(=O)CN(c1ccccc1)C1Cc2ccccc2C1 [Example 14 (b), N-(cyanomethyl)-Nα-(phenyl)-indan-2-yl-glycine-amide]
